{
  "source": "paper PMC3431822",
  "about": "“Enzymatic Properties and Mutational Studies of Chalcone Synthase from Physcomitrella patens” (International Journal of Molecular Sciences, 2012)",
  "biological_target": "T1, PpCHS (Physcomitrium patens, UniProt Q2VAZ3)",
  "T1 construct": "gene PHYPA_029015; homodimer ~120 kDa",
  "T1 sequence (Q2VAZ3 entry or part of it)": "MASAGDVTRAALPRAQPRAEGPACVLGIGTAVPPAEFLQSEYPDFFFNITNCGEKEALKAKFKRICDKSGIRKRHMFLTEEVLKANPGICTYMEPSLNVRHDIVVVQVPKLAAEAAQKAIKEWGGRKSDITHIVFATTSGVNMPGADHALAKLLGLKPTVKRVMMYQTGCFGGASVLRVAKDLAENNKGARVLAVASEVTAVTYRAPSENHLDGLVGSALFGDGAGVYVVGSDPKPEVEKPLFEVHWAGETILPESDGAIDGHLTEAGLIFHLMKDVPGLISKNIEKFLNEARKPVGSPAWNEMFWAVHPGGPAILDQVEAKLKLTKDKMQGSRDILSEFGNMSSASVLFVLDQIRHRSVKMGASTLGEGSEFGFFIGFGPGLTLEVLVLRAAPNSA",
  "experiment": "HPLC of pyrone product, UV […] nm",
  "assay_type": "biochemical",
  "conditions": "hexanoyl-CoA co-substrate, 20 mM phosphate pH 7, 30 °C, 2 h; extender substrate; Trx-fusion enzyme",
  "data": [
    {"smiles": "CC(C)(COP(=O)(O)OP(=O)(O)OC[C@H]1O[C@@H](n2cnc3c(N)ncnc32)[C@H](O)[C@@H]1OP(=O)(O)O)[C@@H](O)C(=O)NCCC(=O)NCCSC(=O)CC(=O)O", "note": "[malonyl-CoA]", "values": [
      {"measurement": "HPLC of pyrone product, UV 280 nm", "value": "HPLC Analysis of the reaction of hexanoyl-CoA and malonyl-CoA with PpCHS"}
    ]}
  ]
}
